Test system: genes encoding plastidic ACCase subunits
Test: qPCR analysis of genes encoding plastidic ACCase subunits
Assay type: cell-based, Brassica napus
Conditions: 10 mM Tween-80, three hour treatment; mean of three repeats ± SE; 0 mM = 1
Experimental: RNA was isolated from cultured cells using Trizol Reagent (Invitrogen, Carlsbad, Calif., USA) and was treated with DNase. cDNA was synthesized from 1 μg of total RNA using the Bio-Rad (Hercules, Calif., USA) iScript cDNA synthesis kit. qPCR was performed with 1:50 of the cDNA product and SSO Fast EvaGreen supermix (Bio-Rad). Reference genes were ACT7 and UBC21 using primers as described previously (Chen et al. 2010 Anal Biochem, 405, 138-140). Primers for experimental genes were as follows: BC, biotin carboxylase (GenBank:A Y034410.1), F-[…] (SEQ ID No. 28) and R-[…] (SEQ ID No. 29); BCCP, biotin carboxyl carrier protein (GenBank: X90730.1), F-[…] (SEQ ID No. 30), R-[…] (SEQ ID No. 31); CT-α, carboxytransferase-α (GenBank GQ341624.1), F-[…] (SEQ ID No. 32), R-[…] (SEQ ID No. 33); CT-β, carboxytransferase-β (GenBank: Z50868.1), F-[…] (SEQ ID No. 34), R-[…] (SEQ ID No. 35). Relative expression level was calculated using REST software (Qiagen, Valencia, Calif., USA).
Gene expression analysis and enzyme assays were performed to better understand the apparent reduction in ACCase activity during Tween-80 feeding. Quantitative real-time PCR was used to measure the expression of genes encoding plastidic ACCase subunits. The specific genes selected for analysis were those originally identified as being embryo expressed in Brassica napus plants (Elborough et al. 1996, Biochemical Journal, 315, 103-112). […] Desalted extracts gave the same result. […] If dephosphorylation is involved in feedback, then treatment with phosphatase would be expected to reduce ACCase activity from inhibited cells to a lesser extent than from the control. If PII interaction is involved, then it is possible that incubation in the presence of 2-oxoglutarate would […] ACCase from a Tween-fed extract more than the control.

## Tween-80
  Relative gene expression BC: 0.91 ± 0.17
  Relative gene expression BCCP: 1.32 ± 0.58
  Relative gene expression CT-α: 1.02 ± 0.33
  Relative gene expression CT-β: 1.18 ± 0.29
